Test system: 354836-022-R-J1-PDC multicell spheroid viability
Assay: Anticancer human tumor 354836-022-R-J1-PDC patient-derived head and neck squamous cell carcinoma cell line growth inhibition [PI3K]
Conditions: for IC50: curve of first compound; for viability, T/C: stronger effect = lower value; active = viability on the fitted dose curve at most 10% of control; inactive = the rest
Method in brief: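 Agents were dosed from a top concentration near clinical Cmax (otherwise 10 microM) in half-log decrements, alone or combined with PI3K inhibitors. The spheroids contain tumor cells plus endothelial (HUVEC) and MSC stroma; viability is measured.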

[1] = second compound 0.0316 µM, first compound 0.000316 µM
[2] = second compound 0.0316 µM, first compound 0.001 µM
[3] = second compound 0.0316 µM, first compound 0.00316 µM
[4] = second compound 0.0316 µM, first compound 0.01 µM
[5] = second compound 0.0316 µM, first compound 0.0316 µM
[6] = second compound 0.0316 µM, first compound 0.1 µM
[7] = second compound 0.1 µM, first compound 0.000316 µM
[8] = second compound 0.1 µM, first compound 0.001 µM
[9] = second compound 0.1 µM, first compound 0.00316 µM
[10] = second compound 0.1 µM, first compound 0.01 µM
[11] = second compound 0.1 µM, first compound 0.0316 µM
[12] = second compound 0.1 µM, first compound 0.1 µM
[13] = second compound 0.316 µM, first compound 0.000316 µM
[14] = second compound 0.316 µM, first compound 0.001 µM
[15] = second compound 0.316 µM, first compound 0.00316 µM
[16] = second compound 0.316 µM, first compound 0.01 µM
[17] = second compound 0.316 µM, first compound 0.0316 µM
[18] = second compound 0.316 µM, first compound 0.1 µM
[19] = second compound 1 µM, first compound 0.000316 µM
[20] = second compound 1 µM, first compound 0.001 µM
[21] = second compound 1 µM, first compound 0.00316 µM
[22] = second compound 1 µM, first compound 0.01 µM
[23] = second compound 1 µM, first compound 0.0316 µM
[24] = second compound 1 µM, first compound 0.1 µM
[25] = second compound 3.16 µM, first compound 0.000316 µM
[26] = second compound 3.16 µM, first compound 0.001 µM
[27] = second compound 3.16 µM, first compound 0.00316 µM
[28] = second compound 3.16 µM, first compound 0.01 µM
[29] = second compound 3.16 µM, first compound 0.0316 µM
[30] = second compound 3.16 µM, first compound 0.1 µM
[31] = second compound 10 µM, first compound 0.000316 µM
[32] = second compound 10 µM, first compound 0.001 µM
[33] = second compound 10 µM, first compound 0.00316 µM
[34] = second compound 10 µM, first compound 0.01 µM
[35] = second compound 10 µM, first compound 0.0316 µM
[36] = second compound 10 µM, first compound 0.1 µM
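Also: spheroids exposed to agents for seven days before the viability read.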

CC(=O)c1c(C)c2cnc(Nc3ccc(N4CCNCC4)cn3)nc2n(C2CCCC2)c1=O + Cc1nc(NC(=O)N2CCCC2C(N)=O)sc1-c1ccnc(C(C)(C)C(F)(F)F)c1
> 100 nM: IC50 (second compound 0.0316 µM) | IC50 (second compound 0.1 µM) | IC50 (second compound 0.316 µM) | IC50 (second compound 1 µM) | IC50 (second compound 3.16 µM)
inactive: viability, T/C [1] 105% | viability, T/C [2] 96.8% | viability, T/C [3] 105% | viability, T/C [4] 83.7% | viability, T/C [5] 117% | viability, T/C [6] 101% | viability, T/C [7] 103% | viability, T/C [8] 91.8% | viability, T/C [9] 92.9% | viability, T/C [10] 92.8% | viability, T/C [11] 89.4% | viability, T/C [12] 111% | viability, T/C [13] 84.1% | viability, T/C [14] 83.5% | viability, T/C [15] 85.8% | viability, T/C [16] 96.6% | viability, T/C [17] 86.4% | viability, T/C [18] 88.9% | viability, T/C [19] 71% | viability, T/C [20] 89.5% | viability, T/C [21] 74.6% | viability, T/C [22] 73.3% | viability, T/C [23] 73.5% | viability, T/C [24] 85.2% | viability, T/C [25] 63% | viability, T/C [26] 72.1% | viability, T/C [27] 67.8% | viability, T/C [28] 60% | viability, T/C [29] 59.4% | viability, T/C [30] 67.5% | viability, T/C [31] 41% | viability, T/C [32] 37.3% | viability, T/C [33] 35.7% | viability, T/C [34] 35.4% | viability, T/C [35] 34.9% | viability, T/C [36] 39.7%
< 0.316 nM: IC50 (second compound 10 µM)

CC(C)n1nc(-c2ccc3oc(N)nc3c2)c2c(N)ncnc21 + Cc1nc(NC(=O)N2CCCC2C(N)=O)sc1-c1ccnc(C(C)(C)C(F)(F)F)c1
14.2 nM: IC50 (second compound 0.0316 µM)
8.94 nM: IC50 (second compound 0.1 µM)
11.1 nM: IC50 (second compound 0.316 µM)
< 0.316 nM: IC50 (second compound 10 µM)
8.28 nM: IC50 (second compound 1 µM)
3.89 nM: IC50 (second compound 3.16 µM)
inactive: viability, T/C [1] 92.2% | viability, T/C [2] 87.7% | viability, T/C [3] 88.7% | viability, T/C [4] 44.3% | viability, T/C [5] 41.7% | viability, T/C [6] 9.88% | viability, T/C [7] 89.6% | viability, T/C [8] 82.7% | viability, T/C [9] 102% | viability, T/C [10] 45.5% | viability, T/C [11] 36% | viability, T/C [12] 11.5% | viability, T/C [13] 76.1% | viability, T/C [14] 80.2% | viability, T/C [15] 81.3% | viability, T/C [16] 49.1% | viability, T/C [17] 26.3% | viability, T/C [18] 10.8% | viability, T/C [19] 72.5% | viability, T/C [20] 69.4% | viability, T/C [21] 69.2% | viability, T/C [22] 43% | viability, T/C [23] 26.5% | viability, T/C [25] 55.8% | viability, T/C [26] 45.2% | viability, T/C [27] 60.2% | viability, T/C [28] 39.2% | viability, T/C [29] 22% | viability, T/C [31] 40.9% | viability, T/C [32] 40.5% | viability, T/C [33] 40.1% | viability, T/C [34] 26.4% | viability, T/C [35] 15.2%
active: viability, T/C [24] 8.31% | viability, T/C [30] 5.92% | viability, T/C [36] 4.44%

CCCS(=O)(=O)Nc1ccc(F)c(C(=O)c2c[nH]c3ncc(-c4ccc(Cl)cc4)cc23)c1F + Cc1nc(NC(=O)N2CCCC2C(N)=O)sc1-c1ccnc(C(C)(C)C(F)(F)F)c1
6080 nM: IC50 (second compound 0.0316 µM)
3430 nM: IC50 (second compound 3.16 µM)
< 31.6 nM: IC50 (second compound 10 µM)
inactive: viability, T/C [5] 96.5% | viability, T/C [6] 86.5% | viability, T/C (second compound 0.0316 µM, first compound 0.316 µM) 97.5% | viability, T/C (second compound 0.0316 µM, first compound 1 µM) 99.8% | viability, T/C (second compound 0.0316 µM, first compound 3.16 µM) 76.6% | viability, T/C (second compound 0.0316 µM, first compound 10 µM) 29.8% | viability, T/C [11] 101% | viability, T/C [12] 93.8% | viability, T/C (second compound 0.1 µM, first compound 0.316 µM) 96.1% | viability, T/C (second compound 0.1 µM, first compound 1 µM) 80.5% | viability, T/C (second compound 0.1 µM, first compound 3.16 µM) 80.2% | viability, T/C (second compound 0.1 µM, first compound 10 µM) 22.8% | viability, T/C [17] 83.7% | viability, T/C [18] 79.6% | viability, T/C (second compound 0.316 µM, first compound 0.316 µM) 75.2% | viability, T/C (second compound 0.316 µM, first compound 1 µM) 80% | viability, T/C (second compound 0.316 µM, first compound 3.16 µM) 75.6% | viability, T/C (second compound 0.316 µM, first compound 10 µM) 18.7% | viability, T/C [23] 80.1% | viability, T/C [24] 76.7% | viability, T/C (second compound 1 µM, first compound 0.316 µM) 72% | viability, T/C (second compound 1 µM, first compound 1 µM) 77% | viability, T/C (second compound 1 µM, first compound 3.16 µM) 70.6% | viability, T/C (second compound 1 µM, first compound 10 µM) 18% | viability, T/C [29] 53.5% | viability, T/C [30] 60.8% | viability, T/C (second compound 3.16 µM, first compound 0.316 µM) 63.1% | viability, T/C (second compound 3.16 µM, first compound 1 µM) 66.8% | viability, T/C (second compound 3.16 µM, first compound 3.16 µM) 50.7% | viability, T/C (second compound 3.16 µM, first compound 10 µM) 11.5% | viability, T/C [35] 39.6% | viability, T/C [36] 35.3% | viability, T/C (second compound 10 µM, first compound 0.316 µM) 35.6% | viability, T/C (second compound 10 µM, first compound 1 µM) 39.9% | viability, T/C (second compound 10 µM, first compound 3.16 µM) 32% | viability, T/C (second compound 10 µM, first compound 10 µM) 7.04%
5560 nM: IC50 (second compound 0.1 µM)
4970 nM: IC50 (second compound 1 µM)
5310 nM: IC50 (second compound 0.316 µM)

From PubChem BioAssay AID1963981 (Molecular Pharmacology Branch, DTP, NCI, 2024)
